Experiment [1] has as its target T1, hPR (Homo sapiens, UniProt P06401).
T1 sequence (P06401 679-933 limits assumed): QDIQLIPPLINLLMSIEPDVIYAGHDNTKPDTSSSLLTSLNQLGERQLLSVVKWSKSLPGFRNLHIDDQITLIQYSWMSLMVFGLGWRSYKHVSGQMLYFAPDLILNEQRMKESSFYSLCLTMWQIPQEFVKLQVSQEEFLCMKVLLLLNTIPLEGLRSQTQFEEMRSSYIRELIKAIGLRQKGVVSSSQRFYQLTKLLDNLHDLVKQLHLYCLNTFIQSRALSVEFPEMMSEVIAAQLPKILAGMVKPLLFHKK
Put plainly: T47D alkaline phosphatase assay, antagonist mode. The format is cell-based. To be noted: T47D human breast cancer cells.
Source text: The potential tissue-selectivities of the selected analogues were examined by using the T47D alkaline phosphatase assay that was developed from human breast cancer cells with endogenous PRs.

The target of experiment [2] is T2, hPR-A (Homo sapiens, UniProt P06401).
T2 sequence (P06401 1-769 isoform P06401-2): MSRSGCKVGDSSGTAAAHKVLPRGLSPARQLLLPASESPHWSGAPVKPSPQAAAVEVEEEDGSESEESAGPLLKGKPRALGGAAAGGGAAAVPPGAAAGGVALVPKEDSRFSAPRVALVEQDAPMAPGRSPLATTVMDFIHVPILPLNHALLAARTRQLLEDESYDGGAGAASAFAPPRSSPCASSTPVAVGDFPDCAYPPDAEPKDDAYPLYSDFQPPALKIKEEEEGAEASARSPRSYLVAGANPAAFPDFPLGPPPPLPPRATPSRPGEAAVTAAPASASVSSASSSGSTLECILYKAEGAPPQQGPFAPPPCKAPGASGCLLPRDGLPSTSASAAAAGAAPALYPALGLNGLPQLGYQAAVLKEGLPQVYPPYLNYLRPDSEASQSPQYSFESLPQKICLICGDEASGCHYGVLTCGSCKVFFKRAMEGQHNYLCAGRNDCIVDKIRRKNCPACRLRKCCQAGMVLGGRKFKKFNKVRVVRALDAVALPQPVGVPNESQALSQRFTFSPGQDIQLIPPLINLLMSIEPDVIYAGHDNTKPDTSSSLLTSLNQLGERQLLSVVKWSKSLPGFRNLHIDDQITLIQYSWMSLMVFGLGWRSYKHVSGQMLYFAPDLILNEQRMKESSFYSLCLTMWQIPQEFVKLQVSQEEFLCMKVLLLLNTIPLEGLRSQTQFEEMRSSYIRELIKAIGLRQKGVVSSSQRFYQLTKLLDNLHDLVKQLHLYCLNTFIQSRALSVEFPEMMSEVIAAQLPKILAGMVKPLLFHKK
Put plainly: Receptor competitive binding assay. To be noted: read-out: PR binding Ki.

Experiment [3] has as its target T3, human mineralocorticoid receptor (hMR) (Homo sapiens, UniProt P08235).
T3 sequence (P08235 1-984): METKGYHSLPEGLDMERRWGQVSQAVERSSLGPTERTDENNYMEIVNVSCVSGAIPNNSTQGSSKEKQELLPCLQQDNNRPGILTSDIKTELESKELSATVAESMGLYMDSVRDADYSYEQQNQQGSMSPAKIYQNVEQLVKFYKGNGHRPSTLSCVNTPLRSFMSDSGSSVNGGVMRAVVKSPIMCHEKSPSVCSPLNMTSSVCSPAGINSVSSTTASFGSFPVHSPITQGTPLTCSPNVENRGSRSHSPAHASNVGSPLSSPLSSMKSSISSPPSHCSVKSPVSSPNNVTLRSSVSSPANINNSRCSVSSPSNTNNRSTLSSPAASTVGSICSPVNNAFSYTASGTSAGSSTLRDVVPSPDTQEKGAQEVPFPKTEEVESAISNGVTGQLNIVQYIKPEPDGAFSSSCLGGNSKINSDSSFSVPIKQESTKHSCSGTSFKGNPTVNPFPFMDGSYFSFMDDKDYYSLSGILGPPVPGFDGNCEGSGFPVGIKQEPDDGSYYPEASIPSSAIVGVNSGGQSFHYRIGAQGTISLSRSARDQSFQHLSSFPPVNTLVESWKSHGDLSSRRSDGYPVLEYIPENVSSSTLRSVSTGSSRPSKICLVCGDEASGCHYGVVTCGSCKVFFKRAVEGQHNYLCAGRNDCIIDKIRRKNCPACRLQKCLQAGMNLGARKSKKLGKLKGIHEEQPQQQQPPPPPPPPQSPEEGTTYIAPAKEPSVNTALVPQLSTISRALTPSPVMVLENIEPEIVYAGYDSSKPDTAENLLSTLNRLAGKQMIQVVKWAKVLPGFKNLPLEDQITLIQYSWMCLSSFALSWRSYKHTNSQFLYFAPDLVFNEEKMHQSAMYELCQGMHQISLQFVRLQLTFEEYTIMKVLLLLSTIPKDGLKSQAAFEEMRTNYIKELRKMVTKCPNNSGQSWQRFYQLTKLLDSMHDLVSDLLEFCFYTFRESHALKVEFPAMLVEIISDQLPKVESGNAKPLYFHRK
The experiment can be described thus: hMR cotransfection assay (potency ratio to hPR). The format is cell-based. To be noted: receptor-selectivity potency ratio, cotransfection assays.
Procedure: Antagonist efficacy was determined as a function (%) of maximal inhibition of a reference agonist at EC50 concentration. All the cotransfection experiments were carried out in 96-well plates by automation (Beckman Biomomek automated workstation).

Consider 1 compound from patent US7163946B2 (Ligand Pharmaceuticals Incorporated, priority 2002, dated 2007).

Molecules are shown by their SMILES.

Broadly, the IC50 is the concentration at which inhibition is half-maximal. The term Ki denotes a dissociation constant, usually derived from enzyme kinetics or from competition with a known ligand. As for `CC1=CC(C)(C)Nc2ccc3c(c21)/C(=C/c1cccs1)Oc1c(F)cc(F)cc1-3` [Compound 31, 7,9-difluoro-5(Z)-(2-thienylmethylidene)-1,2-dihydro-2,2,4-trimethyl-5H-chromeno[3,4-f]quinoline], the Emax in experiment [1] (read-out: hPR Antagonists T47D Cells Eff. (%)) came to 39%. For the same compound, the half-maximal inhibitory concentration (IC50) in experiment [1] (read-out: hPR Antagonists T47D Cells IC50) amounted to 610 nM. The inhibitory constant (Ki) in experiment [2] was determined as 7.9 nM. In addition, the “hMR EC50 or IC50/hPR EC50” value in experiment [3] is on record as >1000.
